Data taken from US9302999B2, “Substituted triazoles as herbicides” (E. I. DU PONT DE NEMOURS AND COMPANY, priority 2012, dated 2016).

Columns and labels:
Type in all cases: in vivo
soybean (Glycine max) = assay: Test C pre-/postemergence: soybean
In short: (§1)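 Preemergence on seeds in loam/sand, postemergence on 2–18 cm (1–4-leaf) plants in peat-based medium; compounds in non-phytotoxic solvent with surfactant. After 13–15 days in greenhouse, visual rating versus controls, 0 (no effect) to 100 (complete control).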

[1] = test system: foxtail, giant (giant foxtail, Setaria faberii); assay: Test A pre-/postemergence: foxtail, giant
In short: (§2)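 Seeds were sown in loam/sand blend and sprayed preemergence (directed soil spray) and, simultaneously, postemergence at 2–10 cm, one- to two-leaf stage, using compounds in non-phytotoxic solvent with surfactant. After ~10 days in greenhouse, injury was rated visually versus untreated controls, 0 (no effect) to 100 (complete control).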

[2] = test system: galium (catchweed bedstraw, Galium aparine); assay: Test C pre-/postemergence: galium
In short: as §1

wild oat (Avena fatua) = assay: Test C pre-/postemergence: wild oat; settings: Postemergence
In short: as §1

[3] = test system: chickweed (common chickweed, Stellaria media); assay: Test C postemergence: chickweed
In short: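 Pot-grown plants in peat/vermiculite medium sprayed postemergence at 2–18 cm height (1- to 4-leaf stage). Kept in greenhouse 13 to 15 days, then visually rated against untreated controls on a 0–100 scale (0 = no effect, 100 = complete control).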

[4] = test system: johnsongrass (Sorghum halepense); assay: Test C pre-/postemergence: johnsongrass
In short: as §1

kochia (Kochia scoparia) = assay: Test C pre-/postemergence: kochia; settings: Postemergence
In short: as §1

[5] = test system: pigweed (Amaranthus retroflexus); assay: Test C pre-/postemergence: pigweed
In short: as §1

[6] = test system: velvetleaf (Abutilon theophrasti); assay: Test A pre-/postemergence: velvetleaf
In short: as §2

[7] = test system: crabgrass, large (large crabgrass, Digitaria sanguinalis); assay: Test A pre-/postemergence: crabgrass, large
In short: as §2

corn (Zea mays) = assay: Test C pre-/postemergence: corn
In short: as §1

[8] = test system: lambsquarters (Chenopodium album); assay: Test C pre-/postemergence: lambsquarters
In short: as §1

[9] = Postemergence, 31 g ai/ha, scale 0 to 100 (0 no effect, 100 complete control)
[10] = Postemergence, 62 g ai/ha, scale 0 to 100 (0 no effect, 100 complete control)
[11] = Postemergence, 125 g ai/ha, scale 0 to 100, 0 no effect, 100 complete control
[12] = Postemergence, 250 g ai/ha, scale 0 to 100 (0 no effect, 100 complete control)
[13] = Preemergence, 31 g ai/ha, scale 0 (no effect) to 100 (complete control)
[14] = Preemergence, 62 g ai/ha, scale of 0 to 100, 0 is no effect, 100 is complete control
[15] = Preemergence, 125 g ai/ha, scale 0 to 100, 0 no effect, 100 complete control
[16] = Preemergence, 250 g ai/ha, scale 0 to 100, 0 no effect, 100 complete control
[17] = Postemergence, 125 g ai/ha, 0 to 100 scale, 0 is no effect, 100 is complete control
[18] = Postemergence, 500 g ai/ha, 0 to 100 scale, 0 is no effect, 100 is complete control
[19] = Preemergence, 125 g ai/ha, 0 to 100 scale where 0 is no effect and 100 is complete control
[20] = Preemergence, 500 g ai/ha, 0 to 100 scale (0 no effect, 100 complete control)
[21] = 31 g ai/ha, scale 0 to 100 (0 no effect, 100 complete control)
[22] = 62 g ai/ha, scale 0 to 100 (0 no effect, 100 complete control)
[23] = 125 g ai/ha, scale 0 to 100, 0 no effect, 100 complete control
[24] = 250 g ai/ha, scale 0 to 100 (0 no effect, 100 complete control)

CCCc1nn(-c2ccc(C(F)(F)F)c(F)c2)nc1Oc1ccnc(C(F)(F)F)c1 [Compound 185]
Plant response rating, Soybean (soybean (Glycine max); [9]): 40
Plant response rating, Soybean (soybean (Glycine max); [10]): 45
Plant response rating, Soybean (soybean (Glycine max); [11]): 45
Plant response rating, Soybean (soybean (Glycine max); [12]): 55
Plant response rating, Soybean (soybean (Glycine max); [13]): 5
Plant response rating, Soybean (soybean (Glycine max); [14]): 10
Plant response rating, Soybean (soybean (Glycine max); [15]): 40
Plant response rating, Soybean (soybean (Glycine max); [16]): 40
Plant response rating, Foxtail, Giant [1, 17]: 90
Foxtail, Giant plant response rating [1, 18]: 90
Plant response rating, Foxtail, Giant [1, 19]: 100
Plant response rating, Foxtail, Giant [1, 20]: 100
Plant response rating, Galium [2, 9]: 70
Plant response rating, Galium [2, 10]: 80
Plant response rating, Galium [2, 11]: 90
Plant response rating, Galium [2, 12]: 90
Plant response rating, Galium [2, 13]: 80
Plant response rating, Galium [2, 14]: 100
Plant response rating, Galium [2, 15]: 100
Plant response rating, Galium [2, 16]: 100
Plant response rating, Oat, Wild (wild oat (Avena fatua); [21]): 25
Plant response rating, Oat, Wild (wild oat (Avena fatua); [22]): 30
Plant response rating, Oat, Wild (wild oat (Avena fatua); [23]): 55
Plant response rating, Oat, Wild (wild oat (Avena fatua); [24]): 60
Plant response rating, Chickweed [3, 21]: 70
Plant response rating, Chickweed [3, 22]: 85
Plant response rating, Chickweed [3, 23]: 95
Plant response rating, Chickweed ([3]; 250 g ai/ha, scale 0 to 100): 95
Plant response rating, Johnsongrass [4, 9]: 10
Plant response rating, Johnsongrass [4, 10]: 30
Plant response rating, Johnsongrass [4, 11]: 65
Plant response rating, Johnsongrass [4, 12]: 75
Plant response rating, Johnsongrass [4, 13]: 25
Plant response rating, Johnsongrass [4, 14]: 70
Plant response rating, Johnsongrass [4, 15]: 80
Plant response rating, Johnsongrass [4, 16]: 100
Plant response rating, Kochia (kochia (Kochia scoparia); [21]): 90
Plant response rating, Kochia (kochia (Kochia scoparia); [22]): 90
Plant response rating, Kochia (kochia (Kochia scoparia); [23]): 90
Plant response rating, Kochia (kochia (Kochia scoparia); [24]): 90
Plant response rating, Pigweed [5, 9]: 98
Plant response rating, Pigweed [5, 10]: 98
Plant response rating, Pigweed [5, 11]: 100
Plant response rating, Pigweed [5, 12]: 100
Plant response rating, Pigweed [5, 13]: 100
Plant response rating, Pigweed [5, 14]: 100
Plant response rating, Pigweed [5, 15]: 100
Plant response rating, Pigweed [5, 16]: 100
Plant response rating, Velvetleaf [6, 17]: 100
Velvetleaf plant response rating [6, 18]: 100
Plant response rating, Velvetleaf [6, 19]: 90
Plant response rating, Velvetleaf [6, 20]: 100
Plant response rating, Crabgrass, Large [7, 17]: 90
Crabgrass, Large plant response rating [7, 18]: 90
Plant response rating, Crabgrass, Large [7, 19]: 100
Plant response rating, Crabgrass, Large [7, 20]: 100
Plant response rating, Corn (corn (Zea mays); [9]): 15
Plant response rating, Corn (corn (Zea mays); [10]): 20
Plant response rating, Corn (corn (Zea mays); [11]): 25
Plant response rating, Corn (corn (Zea mays); Postemergence, 250 g ai/ha, scale 0 to 100): 25
Plant response rating, Corn (corn (Zea mays); [13]): 5
Plant response rating, Corn (corn (Zea mays); [14]): 5
Plant response rating, Corn (corn (Zea mays); [15]): 35
Plant response rating, Corn (corn (Zea mays); [16]): 35
Plant response rating, Lambsquarters [8, 9]: 80
Plant response rating, Lambsquarters [8, 10]: 80
Plant response rating, Lambsquarters [8, 11]: 85
Plant response rating, Lambsquarters [8, 12]: 95
Plant response rating, Lambsquarters [8, 13]: 100
Plant response rating, Lambsquarters [8, 14]: 100
Plant response rating, Lambsquarters [8, 15]: 100
Plant response rating, Lambsquarters [8, 16]: 100
